Test results reported in patent publication US20040087661A1, “Treatment of CNS disorders with trans 4-3(3,4-dichlorophenyl)-1,2,3,4-tetrahydro-N-methyl-1-napthalenamine” (Sepracor, Inc., priority 2002, published 2004).
Where two headings read alike, the source gives them in different places.

Key:
[1] = target: T1, functional uptake of norepinephrine (NE) (Rattus norvegicus, UniProt Q63380); experiment: Norepinephrine functional uptake assay in rat hypothalamus synaptosomes; assay type: biochemical; conditions: read-out: inhibition of NE uptake (no IC50 determined)
T1 construct: synaptosomes isolated at Cerep in a 0.32 M sucrose buffer from a male Wistar rat hypothalamus; tissue Cerep; host or cells: male Wistar rat hypothalamus synaptosomes

[2] = target: T2, functional uptake of dopamine (DA) (Rattus norvegicus, UniProt P23977); experiment: Dopamine functional uptake assay in rat striatum synaptosomes; assay type: biochemical; conditions: initial test at 10 μM in duplicate; read-out: inhibition of DA uptake (no IC50 determined)
T2 construct: synaptosomes isolated at Cerep in a 0.32 M sucrose buffer from a male Wistar rat striatum; tissue Cerep; host or cells: male Wistar rat striatum synaptosomes
T2 sequence (P23977 whole entry): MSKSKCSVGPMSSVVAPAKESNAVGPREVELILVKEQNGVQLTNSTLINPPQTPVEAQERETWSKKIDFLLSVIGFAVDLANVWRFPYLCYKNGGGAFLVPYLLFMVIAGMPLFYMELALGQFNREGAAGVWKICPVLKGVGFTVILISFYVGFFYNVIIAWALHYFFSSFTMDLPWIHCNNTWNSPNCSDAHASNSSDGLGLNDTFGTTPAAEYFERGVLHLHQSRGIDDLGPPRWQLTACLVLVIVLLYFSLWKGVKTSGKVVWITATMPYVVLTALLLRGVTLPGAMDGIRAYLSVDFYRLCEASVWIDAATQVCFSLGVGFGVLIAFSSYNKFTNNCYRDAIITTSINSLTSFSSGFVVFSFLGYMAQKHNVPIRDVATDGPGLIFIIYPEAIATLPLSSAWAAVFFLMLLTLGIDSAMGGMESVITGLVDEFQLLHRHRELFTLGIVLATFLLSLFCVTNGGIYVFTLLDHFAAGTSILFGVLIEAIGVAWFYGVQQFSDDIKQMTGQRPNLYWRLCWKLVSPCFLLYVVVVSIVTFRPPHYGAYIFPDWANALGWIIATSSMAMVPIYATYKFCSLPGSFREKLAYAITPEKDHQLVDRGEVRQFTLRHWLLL

T1 sequence (Q63380 1-617): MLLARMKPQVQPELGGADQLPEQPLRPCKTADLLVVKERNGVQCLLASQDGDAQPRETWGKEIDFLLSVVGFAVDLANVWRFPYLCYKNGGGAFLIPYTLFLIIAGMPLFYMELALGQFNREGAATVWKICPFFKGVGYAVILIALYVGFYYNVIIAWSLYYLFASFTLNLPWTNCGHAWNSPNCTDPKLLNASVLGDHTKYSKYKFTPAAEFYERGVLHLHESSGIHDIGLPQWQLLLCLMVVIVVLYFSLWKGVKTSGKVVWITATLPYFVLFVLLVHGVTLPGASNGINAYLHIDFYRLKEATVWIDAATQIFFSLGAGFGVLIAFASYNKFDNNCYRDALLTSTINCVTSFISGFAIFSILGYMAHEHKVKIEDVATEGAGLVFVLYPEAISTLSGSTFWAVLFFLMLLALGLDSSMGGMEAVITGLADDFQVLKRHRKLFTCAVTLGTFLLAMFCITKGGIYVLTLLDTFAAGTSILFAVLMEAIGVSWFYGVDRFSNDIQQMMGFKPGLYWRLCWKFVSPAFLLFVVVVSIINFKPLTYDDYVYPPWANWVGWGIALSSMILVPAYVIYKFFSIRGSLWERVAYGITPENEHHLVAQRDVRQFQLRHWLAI

inhibition at 10 µM ([1]; initial test at 10 μM in duplicate) [%]	Structure (SMILES)	inhibition at 10 µM [2] [%]	inhibition at 10 µM [1] [%]
< 50	Fc1ccc(C(OCCN2CCN(CCCc3ccccc3)CC2)c2ccc(F)cc2)cc1 [GBR 12909]		
	CNCCCC1c2ccccc2C=Cc2ccccc21 [protriptyline]	< 50	
	CN(C)CCCN1c2ccccc2CCc2ccccc21 [imipramine]	< 50	< 50
